Experimental data taken from patent publication US5492905A, “1-bolizazepin-2,5-diones” (Zeneca Limited, priority 1992, dated 1996).

Tests used:
[1] = tested on: neuronal damage in the hippocampus; test: gerbil ischemic model (bilateral carotid occlusion), neuroprotection; format: in vivo, Mongolian gerbils; conditions: dosed twice with 20 mg/kg body weight ip (e.g. 45 min before and 5 min after occlusion); 10 min occlusion; brains taken after 4 days
Experimental: When testing in vivo using the gerbil ischemic model, adult female Mongolian gerbils (50-70 g) are anesthetized with 2 to 3% halothane. The bilateral common carotid arteries at the neck are exposed and occluded with microaneurysm clips. After 10 min (unless specified), the clips are removed and the blood flow through the carotid arteries is restored and the skin is sutured. Test compounds are administered intraperitoneally both pre- and post-occlusion, for example 45 minutes before and 5 minutes after occlusion of the carotid arteries. Sham-operated animals are treated in the same manner except that the arteries are not clamped. Gross behavioral observations along with motor activity are recorded for 2 hr on the first (24 hr) day following the occlusion. After 4 days, subjects are sacrificed (decapitation), brains are removed, fixed, sectioned and stained with hematoxylin/eosin and cresyl violet.
The brain sections are rated for neuronal damage in the hippocampus using the following rating scale:
1=slight damage (up to 25%) - restricted CA1/subiculum border
2=moderate damage (up to 50%) - obvious damage, restricted to less than half of CA1 field
3=marked damage (up to 75%) - involving greater than half of CA1 field
4=damage extending beyond CA1 field
Results can be reported as the percentage of neuroprotection afforded by a particular dose and dosing regimen.
Sections (7 micron) are evaluated from each brain. Occasionally, asymmetrical damage may be noted and the rating assigned is the average score of the two sides. The average brain damage rating score for each group is recorded, and the damage scores of the drug treated group are compared to the vehicle-treated group using Wilcoxcon-Rank Sum test.

[2] = target: T1, glycine receptor of the NMDA receptor complex (Rattus norvegicus, UniProt P35439); test: [3H]-glycine binding assay; design: species or system Sprague-Dawley rats; conditions: 20 nM [3H]-glycine, rat neuronal synaptic membranes (cortices and hippocampi), pH 7.1, 30 min, 4° C.
T1 construct: neuronal synaptic membranes are prepared from adult (about 250 g) male Sprague-Dawley rats; from tissue; host or cells: synaptic membranes of cortices and hippocampi of adult male Sprague-Dawley rats
Experimental: The actions of compounds of formula I as antagonists at the glycine receptor of the NMDA receptor complex can be shown by standard tests such as the [^3 H]-glycine binding assay, by functional assays in vitro such as tests for measuring glutamate evoked contractions of the guinea pig ileum, and by tests in vivo such as ischemia induced by carotid occlusion in the gerbil model.
In the [^3 H]-glycine binding assay, neuronal synaptic membranes are prepared from adult (about 250 g) male Sprague-Dawley rats. Freshly dissected cortices and hippocampi are homogenized in 0.32M sucrose (110 mg/mL). Synaptosomes are isolated by centrifugation (1000 xg, 10 min), the supernatant is pelleted (20,000 xg, 20 min) and resuspended in double-distilled water. The suspension was centrifuged for 20 minutes at 8,000 xg. The resulting supernatant and buffy coat are washed twice (48,000 xg, 10 mins, resuspension in double-deionized water). The final pellet is quickly frozen (dry ice ethanol bath) under double-deionized water and stored at -70 ° C. […]
For [^3 H]-glycine binding at the N-methyl-D-aspartate receptor, 20 nM [^3 H]-glycine (40-60 Ci/mmol, New England Nuclear, Boston, Mass.) is incubated with the membranes suspended in 50 mM tris (hydroxymethyl)aminomethane citrate, pH 7.1 for 30 minutes at 4° C. […] Radioactivity is estimated by liquid scintillation counting. […]

IC50 [2] [µM]	Structure (SMILES)	neuroprotection (relative to sham-operated control) [1]
	O=c1[nH]c2cc(Cl)ccc2c(=O)cc1NCCc1ccccc1 [Example 6, 8-Chloro-2,5-dioxo-3-phenethylamino-2,5-dihydro-1H-benz[b]azepine]	about 43%
~470	O=c1[nH]c2cc(Cl)ccc2c(=O)cc1N1CCCC1 [Example 12]	about 62%
~43	O=c1[nH]c2cc(Cl)ccc2c(=O)cc1NC[C@H](O)[C@@H](O)[C@H](O)[C@H](O)CO [Example 19, 8-Chloro-3-(D-glucamino)-2,5-dioxo-2,5-dihydro-1H-benz[b]azepine]	about 80%
